Data from patent publication US20240115594A1, “DINUCLEOTIDES AND THEIR USE IN TREATING CANCER” (MAIA Biotechnology, Inc., priority 2022, published 2024).

Key:
Format in all cases: cell-based
Hep3B = assay: IC50 determination / cytotoxicity in human cell lines (Hep3B); details: Hep3B (liver; childhood HCC), 96 h; for % max. toxicity @ 50 μM2: 50 μM; for IC50: 10.000 cells per well, read-out: IC50 [μM] relative to untreated cells
Experimental: (§1) Anticancer activity of the dinucleotides, (formulated and administered in PBS solutions), was evaluated in vitro in various cancer cell lines, according to a commonly used procedures for assessment of compounds cytotoxicity, as out lined in the following publications: Mender, I., Gryaznov, S., Dikmen, Z. G., Wright, W. E., & Shay, J. W. (2015). Induction of telomere dysfunction mediated by the telomerase substrate precursor 6-thio-2′-deoxyguanosine. Cancer Discovery, 5, 82-95; Mender et al., (2020). Telomere Stress Potentiates STING-Dependent Anti-tumor Immunity. Cancer Cell, 38, 400-411.

NCI-H23 = assay: IC50 determination / cytotoxicity in human cell lines (NCI-H23); details: NCI-H23 (lung; adenocarcinoma), 96 h; for % max. toxicity @ 50 μM4: 50 μM; for IC50: 10.000 cells per well, read-out: IC50 [μM] relative to untreated cells
Experimental: as §1

HEK293 = assay: IC50 determination / cytotoxicity in human cell lines (HEK293); details: HEK293 (Kidney), 96 h; for IC50: 10.000 cells per well, 96 well plates, read-out: IC50 [μM] relative to untreated cells
Experimental: as §1

Panc-1 = assay: IC50 determination / cytotoxicity in human cell lines (Panc-1); details: 96 h; for % max. toxicity @ 50 μM5: 50 μM; for IC50: 10.000 cells per well, read-out: IC50 [μM] relative to untreated cells
Experimental: as §1

HepG2 = assay: IC50 determination / cytotoxicity in human cell lines (HepG2); details: HepG2 (liver; hepatoblastoma), 96 h; for % max. toxicity @ 50 μM3: 50 μM; for IC50: 10.000 cells per well, read-out: IC50 [μM] relative to untreated cells
Experimental: as §1

In the case of `Nc1nc2c(ncn2[C@H]2C[C@@H](O)[C@@H](COP(=O)(O)O[C@@H]3C[C@H](n4cnc5c(=S)[nH]c(N)nc54)O[C@@H]3CO)O2)c(=S)[nH]1` [Compound 1], the “% max. toxicity @ 50 μM2” value (Hep3B) is reported as 92%, the IC50 (Hep3B) is reported as 0.68 µM and the “% max. toxicity @ 50 μM4” value (NCI-H23) is reported as 93%. The IC50 (NCI-H23) was 0.07 µM, the “% max. toxicity @ 50 μM” value (HEK293) was 94% and the IC50 (HEK293) was 0.28 µM. The “% max. toxicity @ 50 μM5” value (Panc-1) was 95%, the IC50 (Panc-1) was 0.18 µM and the “% max. toxicity @ 50 μM3” value (HepG2) was 94%. For the same compound, the IC50 (HepG2) was 0.15 µM.
In the case of `Nc1nc2c(ncn2[C@H]2C[C@@H](OP(=O)(O)OC[C@H]3O[C@@H](n4cc(F)c(=O)[nH]c4=O)C[C@H]3O)[C@@H](CO)O2)c(=S)[nH]1` [Compound 5], the “% max. toxicity @ 50 μM2” value (Hep3B) is reported as 87%, the IC50 (Hep3B) is reported as 0.09 µM and the “% max. toxicity @ 50 μM4” value (NCI-H23) is reported as 94%. The IC50 (NCI-H23) was 0.01 µM, the “% max. toxicity @ 50 μM” value (HEK293) was 94% and the IC50 (HEK293) was 0.02 µM. For the same compound, the “% max. toxicity @ 50 μM5” value (Panc-1) was 96%, the IC50 (Panc-1) was 0.25 µM and the “% max. toxicity @ 50 μM3” value (HepG2) was 92%. The IC50 (HepG2) was 0.04 µM.
In the case of `Nc1nc2c(ncn2[C@H]2C[C@@H](O)[C@@H](COP(=O)(O)O[C@@H]3C[C@H](n4cc(F)c(=O)[nH]c4=O)O[C@@H]3CO)O2)c(=S)[nH]1` [Compound 6], the “% max. toxicity @ 50 μM2” value (Hep3B) is reported as 82%, the IC50 (Hep3B) is reported as 0.06 µM and the “% max. toxicity @ 50 μM4” value (NCI-H23) is reported as 92%. The IC50 (NCI-H23) was 0.02 µM, the “% max. toxicity @ 50 μM” value (HEK293) was 93% and the IC50 (HEK293) was 0.01 µM. For the same compound, the “% max. toxicity @ 50 μM5” value (Panc-1) was 88%, the IC50 (Panc-1) was 0.25 µM and the “% max. toxicity @ 50 μM3” value (HepG2) was 89%. The IC50 (HepG2) was 0.06 µM.
`Nc1nc2c(ncn2[C@H]2C[C@@H](OP(O)(=S)OC[C@H]3O[C@@H](n4cc(F)c(=O)[nH]c4=O)C[C@H]3O)[C@@H](CO)O2)c(=S)[nH]1` (some centres unmarked) [Compound 11] was tested, and the “% max. toxicity @ 50 μM2” value (Hep3B) was 62%, the IC50 (Hep3B) was 1.12 µM and the “% max. toxicity @ 50 μM4” value (NCI-H23) was 79%. The IC50 (NCI-H23) was 1.11 µM, the “% max. toxicity @ 50 μM” value (HEK293) was 86% and the IC50 (HEK293) was 0.63 µM. The “% max. toxicity @ 50 μM5” value (Panc-1) was 80%, the IC50 (Panc-1) was 5.12 µM and the “% max. toxicity @ 50 μM3” value (HepG2) was 71%. It also gave an IC50 (HepG2) of 0.61 µM.
For `Nc1nc2c(ncn2[C@H]2C[C@@H](O)[C@@H](COP(O)(=S)O[C@@H]3C[C@H](n4cc(F)c(=O)[nH]c4=O)O[C@@H]3CO)O2)c(=S)[nH]1` (some centres unmarked) [Compound-12], the “% max. toxicity @ 50 μM2” value (Hep3B) was 59%, the IC50 (Hep3B) was 3.68 µM and the “% max. toxicity @ 50 μM4” value (NCI-H23) was 81%. For the same compound, the IC50 (NCI-H23) was 2.55 µM, the “% max. toxicity @ 50 μM” value (HEK293) was 86% and the IC50 (HEK293) was 0.61 µM. For the same compound, the “% max. toxicity @ 50 μM5” value (Panc-1) was 48%, the IC50 (Panc-1) was greater than 50 µM and the “% max. toxicity @ 50 μM3” value (HepG2) was 49%. It also gave an IC50 (HepG2) of 1.15 µM.
